Reference: the NIST ThermoML archive (doi:10.1021/acs.jced.7b00377)
Numbers after ± are expanded uncertainties.

What was measured:
[1] = refractive index (Na D-line) (dimensionless); settings: 298.15 K; 101.33 kPa; Liquid; Standard Abbe refractometry
[2] = Liquid; for mass density: 101.33 kPa, Pycnometric method; for vapor or sublimation pressure: Ebulliometric method (Recirculating still)

Row | SMILES | refractive index [1] | mass density ([2]; 293.15 K) | vapor or sublimation pressure ([2]; 381.08 K) | mass density ([2]; 298.15 K) | vapor or sublimation pressure ([2]; 320.54 K) | vapor or sublimation pressure ([2]; 335.1 K) | vapor or sublimation pressure ([2]; 344.53 K) | vapor or sublimation pressure ([2]; 351.76 K) | vapor or sublimation pressure ([2]; 359.38 K) | vapor or sublimation pressure ([2]; 370.93 K) | vapor or sublimation pressure ([2]; 379.83 K) | vapor or sublimation pressure ([2]; 386.16 K) | vapor or sublimation pressure ([2]; 393.18 K) | vapor or sublimation pressure ([2]; 397.46 K) | vapor or sublimation pressure ([2]; 401.87 K) | vapor or sublimation pressure ([2]; 405.77 K) | vapor or sublimation pressure ([2]; 410.02 K) | vapor or sublimation pressure ([2]; 390.9 K)
1 | CC(C)CO [2-methyl-1-propanol] | 1.3939 ± 0.0004 | 801.8 ± 0.6 kg/m3 | 101.33 ± 0.7 kPa |  |  |  |  |  |  |  |  |  |  |  |  |  |  | 
2 | CCOCOCC(C)C [1-(ethoxymethoxy)-2-methylpropane] | 1.3873 ± 0.0004 |  |  | 823.8 ± 0.6 kg/m3 | 5 ± 0.05 kPa | 10 ± 0.06 kPa | 15 ± 0.09 kPa | 20.02 ± 0.12 kPa | 26.67 ± 0.17 kPa | 39.9 ± 0.23 kPa | 53.33 ± 0.3 kPa | 64.8 ± 0.37 kPa | 79.6 ± 0.44 kPa | 89.9 ± 0.5 kPa | 101.33 ± 0.55 kPa | 112 ± 0.61 kPa | 125 ± 0.67 kPa | 
3 | CCCCO [butan-1-ol] | 1.3971 ± 0.0004 |  |  | 809.5 ± 0.6 kg/m3 |  |  |  |  |  |  |  |  |  |  |  |  |  | 101.33 ± 0.7 kPa
